How the values were obtained:
HL-60 = test: Antiproliferative activity against human HL-60 cells assessed as reduction in cell viability measured after 48 hrs by CCK8 assay; type: functional, cell-based; conditions: HL-60, 48 h
[1] = Antiproliferative activity against human MOLM16 cells assessed as reduction in cell viability measured after 48 hrs by CCK8 assay; type: functional, cell-based, MOLM-16; conditions: MOLM16, 48 h
EOL1 = test: Antiproliferative activity against human EOL1 cells assessed as reduction in cell viability measured after 48 hrs by CCK8 assay; type: functional, cell-based; conditions: EOL1, 48 h
KG-1 = test: Antiproliferative activity against human KG-1 cells assessed as reduction in cell viability measured after 48 hrs by CCK8 assay; type: functional, cell-based; conditions: KG-1, 48 h
[2] = Antiproliferative activity against p110 unexpressed human MM1.R cells assessed as reduction in cell viability measured after 48 hrs by CCK8 assay; type: functional; conditions: MM.1R
[3] = Induction of cell cycle arrest in human MOLM16 cells assessed as accumulation at subG1 phase at 1 uM incubated for 24 hrs by propidium iodide /RNase staining based flow cytometry(Rvb =4.02 %); type: functional, MOLM-16
[4] = Induction of cell cycle arrest in human MOLM16 cells assessed as accumulation at G1 phase at 1 uM incubated for 24 hrs by propidium iodide /RNase staining based flow cytometry(Rvb =46.8 %); type: functional, MOLM-16
[5] = Induction of cell cycle arrest in human MOLM16 cells assessed as accumulation at S phase at 1 uM incubated for 24 hrs by propidium iodide /RNase staining based flow cytometry(Rvb =31.8 %); type: functional, MOLM-16
[6] = Induction of cell cycle arrest in human MOLM16 cells assessed as accumulation at G2 phase at 1 uM incubated for 24 hrs by propidium iodide /RNase staining based flow cytometry(Rvb =14.7 %); type: functional, MOLM-16
[7] = Induction of cell cycle arrest in human MOLM16 cells assessed as accumulation at subG1 phase at 2 uM incubated for 24 hrs by propidium iodide /RNase staining based flow cytometry(Rvb =4.02 %); type: functional, MOLM-16
[8] = Induction of cell cycle arrest in human MOLM16 cells assessed as accumulation at G1 phase at 2 uM incubated for 24 hrs by propidium iodide /RNase staining based flow cytometry(Rvb =46.8 %); type: functional, MOLM-16
[9] = Induction of cell cycle arrest in human MOLM16 cells assessed as accumulation at S phase at 2 uM incubated for 24 hrs by propidium iodide /RNase staining based flow cytometry(Rvb =31.8 %); type: functional, MOLM-16
[10] = Induction of cell cycle arrest in human MOLM16 cells assessed as accumulation at G2 phase at 2 uM incubated for 24 hrs by propidium iodide /RNase staining based flow cytometry(Rvb =14.7 %); type: functional, MOLM-16
[11] = Induction of cell cycle arrest in human MOLM16 cells assessed as accumulation at subG1 phase at 5 uM incubated for 24 hrs by propidium iodide /RNase staining based flow cytometry(Rvb =4.02 %); type: functional, MOLM-16
[12] = Induction of cell cycle arrest in human MOLM16 cells assessed as accumulation at G1 phase at 5 uM incubated for 24 hrs by propidium iodide /RNase staining based flow cytometry(Rvb =46.8 %); type: functional, MOLM-16
[13] = Induction of cell cycle arrest in human MOLM16 cells assessed as accumulation at S phase at 5 uM incubated for 24 hrs by propidium iodide /RNase staining based flow cytometry(Rvb =31.8 %); type: functional, MOLM-16
[14] = Induction of cell cycle arrest in human MOLM16 cells assessed as accumulation at G2 phase at 5 uM incubated for 24 hrs by propidium iodide /RNase staining based flow cytometry(Rvb =14.7 %); type: functional, MOLM-16
[15] = Induction of apoptosis in human MOLM16 cells assessed as viable cells at 1 uM incubated for 48 hrs by Annexin V and propidium iodide Staining based assay (reference value: 76.3 %); type: functional, MOLM-16; conditions: read-out: Activity
[16] = Induction of apoptosis in human MOLM16 cells assessed as early apoptotic cells at 1 uM incubated for 48 hrs by Annexin V and propidium iodide Staining based assay (reference value: 16.4 %); type: functional, MOLM-16
[17] = Induction of apoptosis in human MOLM16 cells assessed as late apoptotic cells at 1 uM incubated for 48 hrs by Annexin V and propidium iodide Staining based assay (reference value: 6.77 %); type: functional, MOLM-16
[18] = Induction of apoptosis in human MOLM16 cells assessed as necrotic cells at 1 uM incubated for 48 hrs by Annexin V and propidium iodide Staining based assay (reference value: 0.44 %); type: functional, MOLM-16
[19] = Induction of apoptosis in human MOLM16 cells assessed as viable cells at 2 uM incubated for 48 hrs by Annexin V and propidium iodide Staining based assay (reference value: 76.3 %); type: functional, MOLM-16; conditions: read-out: Activity
[20] = Induction of apoptosis in human MOLM16 cells assessed as early apoptotic cells at 2 uM incubated for 48 hrs by Annexin V and propidium iodide Staining based assay (reference value: 16.4 %); type: functional, MOLM-16
[21] = Induction of apoptosis in human MOLM16 cells assessed as late apoptotic cells at 2 uM incubated for 48 hrs by Annexin V and propidium iodide Staining based assay (reference value: 6.77 %); type: functional, MOLM-16
[22] = Induction of apoptosis in human MOLM16 cells assessed as necrotic cells at 2 uM incubated for 48 hrs by Annexin V and propidium iodide Staining based assay (reference value: 0.44 %); type: functional, MOLM-16
[23] = Induction of apoptosis in human MOLM16 cells assessed as viable cells at 5 uM incubated for 48 hrs by Annexin V and propidium iodide Staining based assay (reference value: 76.3 %); type: functional, MOLM-16; conditions: read-out: Activity
[24] = Induction of apoptosis in human MOLM16 cells assessed as early apoptotic cells at 5 uM incubated for 48 hrs by Annexin V and propidium iodide Staining based assay (reference value: 16.4 %); type: functional, MOLM-16
[25] = Induction of apoptosis in human MOLM16 cells assessed as late apoptotic cells at 5 uM incubated for 48 hrs by Annexin V and propidium iodide Staining based assay (reference value: 6.77 %); type: functional, MOLM-16
[26] = Induction of apoptosis in human MOLM16 cells assessed as necrotic cells at 5 uM incubated for 48 hrs by Annexin V and propidium iodide Staining based assay (reference value: 0.44 %); type: functional, MOLM-16
[27] = Half life in Sprague-Dawley rat at 2 mg/kg, iv; type: ADME, organism-based; conditions: in vivo
[28] = Half life in Sprague-Dawley rat at 10 mg/kg, po; type: ADME, organism-based; conditions: in vivo
[29] = Volume of distribution in steady state in Sprague-Dawley rat at 2 mg/kg, iv; type: ADME, organism-based; conditions: in vivo
[30] = AUC (0 to t) in Sprague-Dawley rat at 2 mg/kg, iv; type: ADME, organism-based; parameters: dose 2 mg/kg; conditions: in vivo
[31] = AUC (0 to infinity) in Sprague-Dawley rat at 2 mg/kg, iv; type: ADME, organism-based; parameters: time infinity, route intravenous, dose 2 mg/kg; conditions: in vivo
[32] = MRT (0 to infinity) in Sprague-Dawley rat at 2 mg/kg, iv; type: ADME, organism-based; conditions: in vivo
[33] = Tmax in Sprague-Dawley rat at 10 mg/kg, po; type: ADME, organism-based; conditions: in vivo
[34] = Cmax in Sprague-Dawley rat at 10 mg/kg, po; type: ADME, organism-based; parameters: route oral, dose 10 mg/kg; conditions: in vivo
[35] = AUC (0 to t) in Sprague-Dawley rat at 10 mg/kg, po; type: ADME, organism-based; parameters: dose 10 mg/kg; conditions: in vivo
[36] = AUC (0 to infinity) in Sprague-Dawley rat at 10 mg/kg, po; type: ADME, organism-based; parameters: route oral, time infinity, dose 10 mg/kg; conditions: in vivo
[37] = Oral bioavailability in Sprague-Dawley rat at 10 mg/kg; type: ADME, organism-based; conditions: in vivo
[38] = Antitumor activity against human MOLM16 cells xenografted in BALB/c mouse assessed as tumor growth inhibition at 20 mg/kg, po administered daily for 14 days; type: functional, MOLM-16; conditions: 336 h, time 14 day, read-out: TGI
[39] = Antitumor activity against human MOLM16 cells xenografted in BALB/c mouse assessed as tumor growth inhibition at 40 mg/kg, po administered daily for 14 days; type: functional, MOLM-16; conditions: 336 h, time 14 day, read-out: TGI
[40] = Toxicity in BALB/c nude mouse xenografted with human MOLM16 cells assessed as change in body weight at 20 to 40 mg/kg, po administered once daily for 14 days; type: organism-based; conditions: in vivo, 336 h, dose 20-40 mg/kg, time 14 day
[41] = Acute toxicity in ICR mouse assessed as survival at 90 mg/kg, po administered for 7 days and observed for 7 days; type: organism-based; conditions: in vivo, 168 h, time 7 day
[42] = Acute toxicity in ICR mouse assessed as behavioral changes at 90 mg/kg, po administered for 7 days and observed for 7 days; type: organism-based; conditions: in vivo, 168 h, time 7 day
[43] = Acute toxicity in ICR mouse assessed as damage in spleen at 90 mg/kg, po measured after 7 days by H&E staining based immunohistochemistry; type: organism-based; conditions: in vivo, 168 h, time 7 day
[44] = Acute toxicity in ICR mouse assessed as damage in kidney at 90 mg/kg, po measured after 7 days by H&E staining based immunohistochemistry; type: organism-based; conditions: in vivo, 168 h, time 7 day
[45] = Acute toxicity in ICR mouse assessed as damage in lung at 90 mg/kg, po measured after 7 days by H&E staining based immunohistochemistry; type: organism-based; conditions: in vivo, 168 h, time 7 day
[46] = Acute toxicity in ICR mouse assessed as damage in liver at 90 mg/kg, po measured after 7 days by H&E staining based immunohistochemistry; type: organism-based; conditions: in vivo, 168 h, time 7 day
[47] = Acute toxicity in ICR mouse assessed as damage in heart at 90 mg/kg, po measured after 7 days by H&E staining based immunohistochemistry; type: organism-based; conditions: in vivo, 168 h, time 7 day

O=S(=O)(Nc1cc(-c2cnc3[nH]ncc3c2)cnc1Cl)c1ccccc1
IC50 (HL-60): 2.25 µM | IC50 [1]: 0.87 µM | IC50 (EOL1): 2.82 µM | IC50 (KG-1): 5.82 µM | IC50 [2]: 23.1 µM | Activity [3]: 3.5% | Activity [4]: 54.9% | Activity [5]: 31.1% | Activity [6]: 11.8% | Activity [7]: 3.27% | Activity [8]: 56.7% | Activity [9]: 28.6% | Activity [10]: 10.8% | Activity [11]: 11.1% | Activity [12]: 49.2% | Activity [13]: 30.1% | Activity [14]: 8.07% | viability at 1 µM [15]: 69.8% | Activity [16]: 16% | Activity [17]: 13.6% | Activity [18]: 1.6% | viability at 2 µM [19]: 57.8% | Activity [20]: 24.6% | Activity [21]: 16.1% | Activity [22]: 1.47% | viability at 5 µM [23]: 10.7% | Activity [24]: 46.1% | Activity [25]: 42.6% | Activity [26]: 0.6% | half-life [27]: 7.68 h | half-life [28]: 3.74 h | Vdss [29]: 2.12 L/kg | AUC(0-t) [30]: 10200 ng·h/mL | AUC(0-inf) [31]: 10500 ng·h/mL | MRT [32]: 3.12 h | Tmax [33]: 4 h | Cmax [34]: 1100 ng/mL | AUC(0-t) [35]: 9040 ng·h/mL | AUC(0-inf) [36]: 9220 ng·h/mL | bioavailability [37]: 17.6% | inhibition in vivo at 20 mg/kg [38]: 31% | inhibition in vivo at 40 mg/kg [39]: 49% | Activity [40]: Non-Toxic | Activity [41]: Non-Toxic | Activity [42]: Non-Toxic | Activity [43]: Non-Toxic | Activity [44]: Non-Toxic | Activity [45]: Non-Toxic | Activity [46]: Non-Toxic | Activity [47]: Non-Toxic

CC[C@H](Nc1ncnc2[nH]cnc12)c1nc2cccc(F)c2c(=O)n1-c1ccccc1 [IDELALISIB]
Activity [3]: 3.44% | Activity [4]: 47.9% | Activity [5]: 31.7% | Activity [6]: 13.9% | Activity [7]: 5.71% | Activity [8]: 48.4% | Activity [9]: 32.9% | Activity [10]: 12.4% | Activity [11]: 2.6% | Activity [12]: 49.6% | Activity [13]: 32.8% | Activity [14]: 13.6% | viability at 1 µM [15]: 77% | Activity [16]: 13.9% | Activity [17]: 7.95% | Activity [18]: 1.14% | viability at 2 µM [19]: 73.2% | Activity [20]: 18.2% | Activity [21]: 10.1% | Activity [22]: 0.5% | viability at 5 µM [23]: 74.6% | Activity [24]: 14.8% | Activity [25]: 9.19% | Activity [26]: 1.49%

Source: ChEMBL document CHEMBL4840313, “Bioisosteric replacements of the indole moiety for the development of a potent and selective PI3Kδ inhibitor: Design, synthesis and biological evaluation” (Eur J Med Chem, 2021)
